Assay results as given in ChEMBL document CHEMBL2439971, “Design, synthesis and antiproliferative evaluation of fluorenone analogs with DNA topoisomerase I inhibitory properties” (Bioorg Med Chem, 2013).
Calls of active or inactive are those of the source. The calls are words filed in the database; no cut-off is given here.

Tests used:
[1] = Cytotoxicity against human NCI60 cells; assay type: functional
NCI-H226 = experiment: Cytotoxicity against human NCI-H226 cells at 10 uM after 48 hrs by sulforhodamine B assay relative to control; assay type: functional
CAKI-1 = experiment: Cytotoxicity against human CAKI-1 cells at 10 uM after 48 hrs by sulforhodamine B assay relative to control; assay type: functional
UACC-62 = experiment: Cytotoxicity against human UACC62 cells at 10 uM after 48 hrs by sulforhodamine B assay relative to control; assay type: functional
NCI/ADR-RES = experiment: Cytotoxicity against human NCI/ADR-RES cells at 10 uM after 48 hrs by sulforhodamine B assay relative to control; assay type: functional
TK-10 = experiment: Cytotoxicity against human TK10 cells at 10 uM after 48 hrs by sulforhodamine B assay relative to control; assay type: functional
LOX IMVI = experiment: Cytotoxicity against human LOXIMVI cells at 10 uM after 48 hrs by sulforhodamine B assay relative to control; assay type: functional
Homo sapiens = organism: Homo sapiens; experiment: Inhibition of telomerase (unknown origin) at 10 uM TRAP assay
PC-3 [2] = experiment: Cytotoxicity against human PC3 cells at 10 uM after 48 hrs by sulforhodamine B assay relative to control; assay type: functional
HCT-15 = experiment: Cytotoxicity against human HCT15 cells at 10 uM after 48 hrs by sulforhodamine B assay relative to control; assay type: functional
HOP-92 = experiment: Cytotoxicity against human HOP92 cells at 10 uM after 48 hrs by sulforhodamine B assay relative to control; assay type: functional
SF-539 = experiment: Cytotoxicity against human SF539 cells at 10 uM after 48 hrs by sulforhodamine B assay relative to control; assay type: functional
HT-29 = experiment: Cytotoxicity against human HT-29 cells at 10 uM after 48 hrs by sulforhodamine B assay relative to control; assay type: functional
M14 = experiment: Cytotoxicity against human M14 cells at 10 uM after 48 hrs by sulforhodamine B assay relative to control; assay type: functional
OVCAR-3 = experiment: Cytotoxicity against human OVCAR3 cells at 10 uM after 48 hrs by sulforhodamine B assay relative to control; assay type: functional
MCF7 = experiment: Cytotoxicity against human MCF7 cells at 10 uM after 48 hrs by sulforhodamine B assay relative to control; assay type: functional
NCI-H23 = experiment: Cytotoxicity against human NCI-H23 cells at 10 uM after 48 hrs by sulforhodamine B assay relative to control; assay type: functional
SNB-19 = experiment: Cytotoxicity against human SNB19 cells at 10 uM after 48 hrs by sulforhodamine B assay relative to control; assay type: functional
K562 = experiment: Cytotoxicity against human K562 cells at 10 uM after 48 hrs by sulforhodamine B assay relative to control; assay type: functional
MOLT-4 = experiment: Cytotoxicity against human MOLT4 cells at 10 uM after 48 hrs by sulforhodamine B assay relative to control; assay type: functional
T47D = experiment: Cytotoxicity against human T47D cells at 10 uM after 48 hrs by sulforhodamine B assay relative to control; assay type: functional
SK-MEL-28 = experiment: Cytotoxicity against human SK-MEL-28 cells at 10 uM after 48 hrs by sulforhodamine B assay relative to control; assay type: functional
OVCAR-5 = experiment: Cytotoxicity against human OVCAR5 cells at 10 uM after 48 hrs by sulforhodamine B assay relative to control; assay type: functional
BT-549 = experiment: Cytotoxicity against human BT549 cells at 10 uM after 48 hrs by sulforhodamine B assay relative to control; assay type: functional
COLO 205 = experiment: Cytotoxicity against human COLO205 cells at 10 uM after 48 hrs by sulforhodamine B assay relative to control; assay type: functional
SK-MEL-2 = experiment: Cytotoxicity against human SK-MEL-2 cells at 10 uM after 48 hrs by sulforhodamine B assay relative to control; assay type: functional
MDA-MB-435 = experiment: Cytotoxicity against human MDA-MB-435 cells at 10 uM after 48 hrs by sulforhodamine B assay relative to control; assay type: functional
KM12 = experiment: Cytotoxicity against human KM12 cells at 10 uM after 48 hrs by sulforhodamine B assay relative to control; assay type: functional
SW-620 = experiment: Cytotoxicity against human SW620 cells at 10 uM after 48 hrs by sulforhodamine B assay relative to control; assay type: functional
SF-295 = experiment: Cytotoxicity against human SF295 cells at 10 uM after 48 hrs by sulforhodamine B assay relative to control; assay type: functional
HCT-116 = experiment: Cytotoxicity against human HCT116 cells at 10 uM after 48 hrs by sulforhodamine B assay relative to control; assay type: functional
SNB-75 = experiment: Cytotoxicity against human SNB75 cells at 10 uM after 48 hrs by sulforhodamine B assay relative to control; assay type: functional
SF-268 = experiment: Cytotoxicity against human SF268 cells at 10 uM after 48 hrs by sulforhodamine B assay relative to control; assay type: functional
SK-MEL-5 = experiment: Cytotoxicity against human SK-MEL-5 cells at 10 uM after 48 hrs by sulforhodamine B assay relative to control; assay type: functional
MDA-MB-231 = experiment: Cytotoxicity against human MDA-MB-231 cells at 10 uM after 48 hrs by sulforhodamine B assay relative to control; assay type: functional
UO-31 = experiment: Cytotoxicity against human UO31 cells at 10 uM after 48 hrs by sulforhodamine B assay relative to control; assay type: functional
A549 = experiment: Cytotoxicity against human A549 cells at 10 uM after 48 hrs by sulforhodamine B assay relative to control; assay type: functional
OVCAR-4 = experiment: Cytotoxicity against human OVCAR4 cells at 10 uM after 48 hrs by sulforhodamine B assay relative to control; assay type: functional
NCI-H460 = experiment: Cytotoxicity against human NCI-H460 cells at 10 uM after 48 hrs by sulforhodamine B assay relative to control; assay type: functional
SR = experiment: Cytotoxicity against human SR cells at 10 uM after 48 hrs by sulforhodamine B assay relative to control; assay type: functional
RPMI-8226 = experiment: Cytotoxicity against human RPMI8226 cells at 10 uM after 48 hrs by sulforhodamine B assay relative to control; assay type: functional
786-0 = experiment: Cytotoxicity against human 786-0 cells at 10 uM after 48 hrs by sulforhodamine B assay relative to control; assay type: functional
NCI-H322M = experiment: Cytotoxicity against human NCI-H322M cells at 10 uM after 48 hrs by sulforhodamine B assay relative to control; assay type: functional
Malme-3M = experiment: Cytotoxicity against human MALME-3M cells at 10 uM after 48 hrs by sulforhodamine B assay relative to control; assay type: functional
HL-60(TB) = experiment: Cytotoxicity against human HL-60(TB) cells at 10 uM after 48 hrs by sulforhodamine B assay relative to control; assay type: functional
HOP-62 = experiment: Cytotoxicity against human HOP62 cells at 10 uM after 48 hrs by sulforhodamine B assay relative to control; assay type: functional
[3] = Cytotoxicity against human Hs 578T cells at 10 uM after 48 hrs by sulforhodamine B assay relative to control; assay type: functional
RXF 393 = experiment: Cytotoxicity against human RXF393 cells at 10 uM after 48 hrs by sulforhodamine B assay relative to control; assay type: functional
MDA-MB-468 = experiment: Cytotoxicity against human MDA-MB-468 cells at 10 uM after 48 hrs by sulforhodamine B assay relative to control; assay type: functional
HCC 2998 = experiment: Cytotoxicity against human HCC2998 cells at 10 uM after 48 hrs by sulforhodamine B assay relative to control; assay type: functional
ACHN = experiment: Cytotoxicity against human ACHN cells at 10 uM after 48 hrs by sulforhodamine B assay relative to control; assay type: functional
IGROV-1 = experiment: Cytotoxicity against human IGROV1 cells at 10 uM after 48 hrs by sulforhodamine B assay relative to control; assay type: functional
OVCAR-8 = experiment: Cytotoxicity against human OVCAR8 cells at 10 uM after 48 hrs by sulforhodamine B assay relative to control; assay type: functional
DU-145 = experiment: Cytotoxicity against human DU145 cells at 10 uM after 48 hrs by sulforhodamine B assay relative to control; assay type: functional
U-251 = experiment: Cytotoxicity against human U251 cells at 10 uM after 48 hrs by sulforhodamine B assay relative to control; assay type: functional
NCI-H522 = experiment: Cytotoxicity against human NCI-H522 cells at 10 uM after 48 hrs by sulforhodamine B assay relative to control; assay type: functional
UACC-257 = experiment: Cytotoxicity against human UACC257 cells at 10 uM after 48 hrs by sulforhodamine B assay relative to control; assay type: functional
CCRF-CEM = experiment: Cytotoxicity against human CCRF-CEM cells at 10 uM after 48 hrs by sulforhodamine B assay relative to control; assay type: functional
[4] = Cytotoxicity against human EKVX cells at 10 uM after 48 hrs by sulforhodamine B assay relative to control; assay type: functional
SN12C = experiment: Cytotoxicity against human SN12C cells at 10 uM after 48 hrs by sulforhodamine B assay relative to control; assay type: functional
PC-3 [5] = experiment: Cytotoxicity against human PC3 cells after 48 hrs by sulforhodamine B assay; assay type: functional, cell-based; settings: PC-3, 48 h
[6] = target: DNA topoisomerase 1 (Homo sapiens) (UniProt P11387); experiment: Inhibition of recombinant human DNA topoisomerase 1-mediated relaxation of supercoiled pHOT DNA at 25 to 50 uM after 45 mins by agarose gel electrophoresis
Chain of DNA topoisomerase 1 (Homo sapiens) (P11387 whole entry): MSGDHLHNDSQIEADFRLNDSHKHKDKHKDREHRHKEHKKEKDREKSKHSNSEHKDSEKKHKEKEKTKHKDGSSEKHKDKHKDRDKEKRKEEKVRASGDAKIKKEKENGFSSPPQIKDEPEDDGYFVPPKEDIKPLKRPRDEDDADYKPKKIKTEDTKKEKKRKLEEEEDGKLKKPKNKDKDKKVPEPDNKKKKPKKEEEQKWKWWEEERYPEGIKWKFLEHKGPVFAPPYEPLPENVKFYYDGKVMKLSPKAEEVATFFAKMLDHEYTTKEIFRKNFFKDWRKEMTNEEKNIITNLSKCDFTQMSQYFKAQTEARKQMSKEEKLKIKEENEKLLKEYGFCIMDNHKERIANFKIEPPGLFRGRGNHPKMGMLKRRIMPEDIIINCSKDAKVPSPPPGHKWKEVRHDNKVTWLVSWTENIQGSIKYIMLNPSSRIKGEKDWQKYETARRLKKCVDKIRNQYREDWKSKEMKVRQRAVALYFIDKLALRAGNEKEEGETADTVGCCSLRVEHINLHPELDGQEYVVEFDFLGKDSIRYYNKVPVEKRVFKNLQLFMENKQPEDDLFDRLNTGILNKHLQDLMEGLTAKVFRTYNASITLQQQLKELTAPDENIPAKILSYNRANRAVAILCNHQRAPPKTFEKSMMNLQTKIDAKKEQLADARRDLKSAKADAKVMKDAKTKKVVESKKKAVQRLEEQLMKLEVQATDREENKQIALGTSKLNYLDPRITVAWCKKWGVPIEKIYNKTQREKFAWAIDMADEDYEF

CCN(CC)CCC(=O)Nc1ccc2c(c1)C(=O)c1cc(NC(=O)CCN(CC)CC)ccc1C2=O showed a GI50 [1] of 2570 nM.
In the case of CN1CCN(CC(=O)Nc2ccc3c(c2)C(=O)c2cc(NC(=O)CN4CCN(C)CC4)ccc2-3)CC1, the Activity (NCI-H226) is reported as 106.03%, the Activity (CAKI-1) is reported as 92.75% and the Activity (UACC-62) is reported as 110.11%. It also gave an Activity (NCI/ADR-RES) of 102.76%, an Activity (TK-10) of 106.54% and an Activity (LOX IMVI) of 96.76%. The inhibition (Homo sapiens) was “inactive”, the Activity (PC-3 [2]) was 101.32% and the Activity (HCT-15) was 106.48%. For the same compound, the Activity (HOP-92) was 93.88%, the Activity (SF-539) was 107.96% and the Activity (HT-29) was 95.51%. It also gave an Activity (M14) of 106.48%, an Activity (OVCAR-3) of 125.59% and an Activity (MCF7) of 95.17%. For the same compound, the Activity (NCI-H23) was 99.17%, the Activity (SNB-19) was 101.36% and the Activity (K562) was 104.58%. It also gave an Activity (MOLT-4) of 96.58%, an Activity (T47D) of 103.63% and an Activity (SK-MEL-28) of 97.75%. It also gave an Activity (OVCAR-5) of 119.06%, an Activity (BT-549) of 110.6% and an Activity (COLO 205) of 102.69%. The Activity (SK-MEL-2) was 119.93%, the Activity (MDA-MB-435) was 95.92% and the Activity (KM12) was 108.52%. For the same compound, the Activity (SW-620) was 103.43%, the Activity (SF-295) was 93.37% and the Activity (HCT-116) was 94.2%. For the same compound, the Activity (SNB-75) was 87.76%, the Activity (SF-268) was 115.79% and the Activity (SK-MEL-5) was 103.25%. The Activity (MDA-MB-231) was 108.13%, the Activity (UO-31) was 89.84% and the Activity (A549) was 106.99%. The Activity (OVCAR-4) was 111.66%, the Activity (NCI-H460) was 108.46% and the Activity (SR) was 105.62%. The Activity (RPMI-8226) was 106.31%, the Activity (786-0) was 102.26% and the Activity (NCI-H322M) was 97.25%. The Activity (Malme-3M) was 115.66%, the Activity (HL-60(TB)) was 100.43% and the Activity (HOP-62) was 111.05%. It also gave an Activity [3] of 107.34%, an Activity (RXF 393) of 110.09% and an Activity (MDA-MB-468) of 98.39%. The Activity (HCC 2998) was 98.62%, the Activity (ACHN) was 111.9% and the Activity (IGROV-1) was 110.15%. It also gave an Activity (OVCAR-8) of 111.5%, an Activity (DU-145) of 117.23% and an Activity (U-251) of 97.19%. It also gave an Activity (NCI-H522) of 90.02%, an Activity (UACC-257) of 133.36% and an Activity (CCRF-CEM) of 98.38%. For the same compound, the Activity [4] was 100.31%, the Activity (SN12C) was 100.48% and the IC50 (PC-3 [5]) was over 30000 nM.
With CN(C)CC(=O)Nc1ccc2c(c1)C(=O)c1cc(NC(=O)CN(C)C)ccc1C2=O the GI50 [1] was 2090 nM and the inhibition [6] was “Active”.
